Assay results taken from article PMC11721736, “Synthesis of Novel Benzothiazole–Profen Hybrid Amides as Potential NSAID Candidates” (Molecules, 2024).
Values joined by “and” are separate entries in the source; they are usually repeats but may differ in a detail not shown here. Equal entries are not always repeated.

Legend:
human albumin = target: T1, human albumin (Homo sapiens, UniProt P02768); test: Inhibition of albumin denaturation (IAD), in vitro anti-inflammatory activity; assay type: biochemical; conditions: human albumin 1%, heated at 70 °C for 15 min, turbidity at 660 nm; read-out: IAD IC50 ± SD (converted)
T1 construct: purchased BB-NCIPD Ltd., Sofia, Bulgaria Human albumin 20%—BB, 200 g/L
T1 sequence (P02768 25-609): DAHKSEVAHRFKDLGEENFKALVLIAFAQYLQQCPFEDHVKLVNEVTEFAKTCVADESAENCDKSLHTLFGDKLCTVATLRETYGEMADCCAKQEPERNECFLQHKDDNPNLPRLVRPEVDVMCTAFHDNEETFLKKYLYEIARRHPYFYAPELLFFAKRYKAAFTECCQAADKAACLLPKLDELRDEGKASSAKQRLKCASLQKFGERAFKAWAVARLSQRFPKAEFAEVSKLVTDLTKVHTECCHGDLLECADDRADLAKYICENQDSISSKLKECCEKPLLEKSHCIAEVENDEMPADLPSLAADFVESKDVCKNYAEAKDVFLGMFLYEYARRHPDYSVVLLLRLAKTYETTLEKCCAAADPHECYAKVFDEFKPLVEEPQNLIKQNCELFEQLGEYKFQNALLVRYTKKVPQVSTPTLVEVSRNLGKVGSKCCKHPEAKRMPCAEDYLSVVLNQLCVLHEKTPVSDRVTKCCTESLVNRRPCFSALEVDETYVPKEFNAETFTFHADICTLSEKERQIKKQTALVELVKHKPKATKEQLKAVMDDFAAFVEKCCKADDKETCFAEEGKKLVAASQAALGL
Description: In vitro analysis of anti-inflammatory activity was assessed as the inhibition of albumin denaturation (IAD). The analysis was performed according to Manolov’s method, with minor modifications. The experiment was performed with human albumin. The solution of albumin (1%) was prepared in distilled water (pH 7.4). Test samples/standards were first dissolved in 1.2 mL of DMSO and then supplemented with 1% Tween 80 in PBS so that the final concentration of the stock solution was 1000 μg/mL. Then, a series of working solutions with different concentrations (20–500 μg/mL) in 1% Tween 80/PBS were prepared. The reaction mixture contained a 2 mL test sample/standard of different concentrations and 1 mL albumin (1%). The mixture was incubated at 37 °C for 15 min and then heated at 70 °C for 15 min in a water bath. After cooling, the turbidity was measured at 660 nm with a spectrophotometer (Camspec M508, Leeds, UK). Ibuprofen was used as a standard. The experiment was performed three times. The percentage inhibition of albumin denaturation (IAD) was calculated against the control. The control sample consisted of the same concentration of albumin dissolved in distilled water. (3) %IAD=Ablank−Asample/Ablank×100

[1] = Hydroxyl radical scavenging activity (HRSA); conditions: 1 h at 37 °C, absorbance at 510 nm
Description: Hydroxyl radical scavenging activities of different fractions of 2-ABT-profenes were determined according to the method described by Guo [47]. The scavenging of hydroxyl radicals was performed as follows: 0.3 mL sodium salicylate (20 mM), 1 mL FeSO4 (1.5 mM), 1 mL sample/standard of different concentrations (20–1000 µg/mL), and 0.7 mL H2O2 (6 mM) were mixed immediately. Then, the reaction tubes were put in a 37 °C water bath for 1 h, and the absorbance of the mixture was recorded at 510 nm against a blank. We used standards with proven high antioxidant activity such as ascorbic acid and quercetin. The hydroxyl radical scavenging ability was calculated as follows:(2) I,%(HRSA)=Ablank−Asample/Ablank×100 where Ablank is the absorbance without samples and Asample is the absorbance in the presence of the samples.

[2] = Lipophilicity as RM values by reversed-phase thin-layer chromatography; assay type: physicochemical; conditions: reversed-phase TLC, dimensionless
Excerpt: Lipophilicity can be evaluated through calculations or experimental methods. In our study, we measured the lipophilicity of the synthesized 2-ABT derivatives using a practical method: reversed-phase thin-layer chromatography, as described by Hadjipavlou-Litina. The lipophilicity increased in the following order based on the experimentally obtained RM values: 3a (1.629) < […] < 3e (1.736) < 3b (1.941) < 3c (2.02). Compound 3c is the most lipophilic experimentally, followed by 3b, while 3a is the least lipophilic.
The determination of lipophilicity of 2-ABT derivatives was estimated according to the method reported by Pontiki and Hadjipavlou-Litina.

[3] = Hydrogen peroxide scavenging activity (HPSA); conditions: 10 min at 37 °C, absorbance at 230 nm
Description: The Manolov et al. approach was used to evaluate the capacity to scavenge hydrogen peroxide. A 43 mM solution of H2O2 was prepared in a potassium phosphate buffer solution (0.2 M, pH 7.4). The analysis of the samples was carried out as follows: in test tubes, 0.6 mL H2O2 (43 mM), 1 mL sample/standard of different concentrations (20–1000 µg/mL), and 2.4 mL potassium phosphate buffer solution were mixed. The mixture was stirred and incubated in the dark for 10 min at 37 °C. Absorbance was measured at 230 nm with a spectrophotometer (Camspec M508, Leeds, UK) against a blank solution containing phosphate buffer and H2O2 without the sample. Ascorbic acid and quercetin were used as standards. The percentage HPSA of the samples was evaluated by comparing them to a blank sample and was calculated using the following formula:(1) I,%(HPSA)=Ablank−(ATS−ACS)/Ablank×100 where Ablank is the absorbance of the blank sample, ACS is the absorbance of the control sample, and ATS is the absorbance of the test sample.

| SMILES | IC50 (human albumin) [µM] | HRSA IC50 ± SD [1] [µg/mL] | RM ± SD [2] | HPSA IC50 ± SD [3] [µg/mL] |
| --- | --- | --- | --- | --- |
| O=C1O[C@H]([C@@H](O)CO)C(O)=C1O [AA, ascorbic acid, reference compound] |  | 129.84 ± 4.52 |  | 24.84 ± 0.35 |
| O=c1c(O)c(-c2ccc(O)c(O)c2)oc2cc(O)cc(O)c12 [Qrc, quercetin, reference compound] |  | 149.18 ± 9.27 |  | 69.25 ± 1.82 |
| CC(C)Cc1ccc(C(C)C(=O)O)cc1 (stereo not shown) [Ibu, ibuprofen, reference compound] |  |  | 1.110 ± 0.010 |  |

Next, values leading:

| IC50 (human albumin) [µM] | HRSA IC50 ± SD [1] [µg/mL] | RM ± SD [2] | HPSA IC50 ± SD [3] [µg/mL] | SMILES |
| --- | --- | --- | --- | --- |
| 157 | 429.59 ± 21.49 | 1.736 ± 0.015 and 1.736 | 63.05 ± 0.28 | CC(C(=O)Nc1nc2ccccc2s1)c1ccc(-c2ccccc2)c(F)c1 (stereo not shown) [Compound 3e, N-(benzo[d]thiazol-2-yl)-2-(2-fluoro-[1,1′-biphenyl]-4-yl)propanamide] |
| 141 | 285.13 ± 27.44 | 1.941 ± 0.010 and 1.941 | 60.24 | CC(C(=O)Nc1nc2ccccc2s1)c1cccc(C(=O)c2ccccc2)c1 (stereo not shown) [Compound 3b, N-(benzo[d]thiazol-2-yl)-2-(3-benzoylphenyl)propanamide] |
| 473 | 375.06 ± 14.62 | 1.629 ± 0.009 and 1.629 | 65.51 ± 0.30 | CC(C)Cc1ccc(C(C)C(=O)Nc2nc3ccccc3s2)cc1 (stereo not shown) [Compound 3a, N-(benzo[d]thiazol-2-yl)-2-(4-isobutylphenyl)propanamide] |
| 160 | 551.44 ± 28.48 | 1.755 ± 0.014 and 1.755 | 67.22 ± 0.45 | CC(C(=O)Nc1nc2ccccc2s1)c1ccc2c(c1)[nH]c1ccc(Cl)cc12 (stereo not shown) [Compound 3d, N-(benzo[d]thiazol-2-yl)-2-(6-chloro-9H-carbazol-2-yl)propanamide] |
| 178 | 317.91 ± 11.61 | 2.020 ± 0.046 and 2.02 | 67.71 | COc1ccc2cc(C(C)C(=O)Nc3nc4ccccc4s3)ccc2c1 (stereo not shown) [Compound 3c, N-(benzo[d]thiazol-2-yl)-2-(6-methoxynaphthalen-2-yl)propanamide] |
